The results in this text go back to ChEMBL document CHEMBL1123474, “Neuroleptics from the 4a,9b-cis- and 4a,9b-trans-2,3,4,4a,5,9b-hexahydro-1H-pyrido[4,3-b]indole series. 2” (J Med Chem, 1986).

Experiment [1] concerns Rattus norvegicus. As to the kind of experiment: Inhibition of d-amphetamine induced stereotypy in rats; i.p. treatment 1 hr before amphetamine. The class given is functional.
Experiment [2] deals with Rattus norvegicus. Kind of experiment: Inhibition of d-amphetamine induced stereotypy in rats; i.p. treatment 24 hr before amphetamine. The class given is functional.
For experiment [3], the system named is Rattus norvegicus. Kind of experiment: Inhibition of d-amphetamine induced stereotypy in rats; i.p. treatment 5 hr before amphetamine. The class given is functional.
For experiment [4], the species on record is Rattus norvegicus. As to the kind of experiment: animal or person. The note with it: ip.
For experiment [5], the species on record is Rattus norvegicus. Kind of experiment: animal or person. The note with it: ip. This is another data set of the same source.
Experiment [6] is filed under the species Rattus norvegicus. As to the kind of experiment: animal or person. Particulars: ip. This is another data set of the same source.
[7] abbreviates: Rattus norvegicus, ip, read-out: ED50.

For `COc1ccc(/C=C/CCN2CC[C@@H]3[C@@H](C2)c2cc(F)ccc2N3c2ccc(F)cc2)cc1`, the median effective dose (ED50) in experiment [1] (setting [7]) was greater than 3.2 mg/kg; in experiment [2] (setting [7]), roughly 0.32 mg/kg; in experiment [3] (setting [7]) it was roughly 0.32 mg/kg.
With `Fc1ccc(/C=C/CCN2CC[C@@H]3[C@@H](C2)c2cc(F)ccc2N3c2ccc(F)cc2)cc1`, the ED50 in experiment [1] (setting [7]) was greater than 1 mg/kg; in experiment [2] (setting [7]), 0.57 mg/kg; in experiment [3] (setting [7]), 0.57 mg/kg.
With `OC(CCCN1CC[C@@H]2[C@@H](C1)c1ccccc1N2c1ccc(F)cc1)c1ccc(F)cc1` (some centres not stated), the ED50 in experiment [1] (setting [7]) was roughly 0.32 mg/kg; in experiment [2] (setting [7]), 0.032 mg/kg; in experiment [3] (setting [7]), 0.032 mg/kg.
With `OCCCCN1CC[C@@H]2[C@@H](C1)c1cc(F)ccc1N2c1ccc(F)cc1`, the ED50 in experiment [1] (setting [7]) was 0.03 mg/kg; in experiment [2] (setting [7]) it was roughly 1 mg/kg; in experiment [3] (setting [7]), 0.009 mg/kg.
On to `Fc1ccc(N2c3ccc(F)cc3[C@@H]3CNCC[C@H]32)cc1`, for which the ED50 in experiment [1] (setting [7]) and in experiment [3] (setting [7]) was greater than 3.2 mg/kg throughout.
Turning to `CCN1CC[C@@H]2[C@@H](C1)c1cc(F)ccc1N2c1ccc(F)cc1`, the ED50 was 0.14 mg/kg in experiment [1] (setting [7]), greater than 10 mg/kg in experiment [2] (setting [7]) and 0.18 mg/kg in experiment [3] (setting [7]).
Take `OC(CCCN1CC[C@H]2[C@@H](C1)c1ccccc1N2c1ccccc1)c1ccc(F)cc1` (some centres not stated): the ED50 in experiment [1] (setting [7]) and in experiment [3] (setting [7]) was greater than 32 mg/kg in each case.
For the molecule `OC(CCCN1CC[C@H]2[C@@H](C1)c1cc(F)ccc1N2c1ccc(F)cc1)c1ccc(F)cc1` (some centres not stated), the ED50 in experiment [1] (setting [7]) was 22 mg/kg; in experiment [2] (setting [7]), 9.1 mg/kg; in experiment [3] (setting [7]), 1.1 mg/kg.
With `CN1CC[C@H]2[C@@H](C1)c1ccccc1N2c1ccccc1`, the ED50 in experiment [1] (setting [7]) and in experiment [3] (setting [7]) was greater than 32 mg/kg throughout.
As for `c1ccc(CN2CC[C@H]3[C@@H](C2)c2ccccc2N3c2ccccc2)cc1`, the 50% effective dose (ED50) in experiment [1] (setting [7]) and in experiment [3] (setting [7]) was greater than 32 mg/kg in each case.
For the molecule `OC(CCCN1CC[C@@H]2[C@@H](C1)c1cc(F)ccc1N2c1ccc(F)cc1)c1ccc(F)cc1` (some centres not stated), the figures for the ED50 in experiment [1] (setting [7]), in experiment [2] (setting [7]) and in experiment [3] (setting [7]) were 0.41 mg/kg, 0.03 mg/kg and 0.03 mg/kg, respectively.
`COc1ccc(C(O)CCCN2CC[C@@H]3[C@@H](C2)c2cc(F)ccc2N3c2ccc(F)cc2)cc1` (some centres not stated): the ED50 in experiment [1] (setting [7]) was determined as 0.36 mg/kg; in experiment [2] (setting [7]) it was 0.1 mg/kg; in experiment [3] (setting [7]), 0.01 mg/kg.
Turning to `CN1CC[C@@H]2[C@@H](C1)c1cc(F)ccc1N2c1ccc(F)cc1`, the 50% effective dose (ED50) is 0.14 mg/kg in experiment [1] (setting [7]), greater than 3.2 mg/kg in experiment [2] (setting [7]) and 0.23 mg/kg in experiment [3] (setting [7]).
On to `c1ccc(N2c3ccccc3[C@@H]3CNCC[C@@H]32)cc1`, for which the ED50 in experiment [1] (setting [7]) and in experiment [3] (setting [7]) was greater than 32 mg/kg each time.
In the case of `O=C(CCCN1CC[C@@H]2[C@@H](C1)c1cc(F)ccc1N2c1ccc(F)cc1)c1ccc(F)cc1`, the median effective dose (ED50) in experiment [1] (setting [7]) was greater than 1 mg/kg; in experiment [2] (setting [7]) it was 0.03 mg/kg; in experiment [3] (setting [7]), 0.1 mg/kg.
Consider `OC(CCCN1CC[C@@H]2[C@@H](C1)c1cc(F)ccc1N2c1ccc(F)cc1)c1ccccc1` (some centres not stated), for which the ED50 in experiment [1] (setting [7]), in experiment [2] (setting [7]) and in experiment [3] (ip) was 0.18 mg/kg in each case.
For `OC(CCCN1CC[C@@H]2[C@@H](C1)c1cc(F)ccc1N2c1ccccc1)c1ccc(F)cc1` (stereo in doubt; 24), the median effective dose (ED50) in experiment [1] came to 0.23 mg/kg; in experiment [2], 0.11 mg/kg; in experiment [3] it was 0.08 mg/kg.
The matching figures for `OC(CCCN1CC[C@@H]2[C@@H](C1)c1cc(F)ccc1N2c1ccccc1)c1ccc(F)cc1` (stereo in doubt; 25): 0.1 mg/kg, 0.032 mg/kg and roughly 0.032 mg/kg.
As for `CN1CC[C@@H]2Nc3ccccc3[C@@H]2C1` [CARBIDINE], the ED50 in experiment [1] (setting [7]) and in experiment [3] (setting [7]) was greater than 32 mg/kg throughout.
With `OC(CCCN1CCc2c(c3cc(F)ccc3n2-c2ccc(F)cc2)C1)c1ccc(F)cc1` (configuration not stated) [FLUTROLINE], the ED50 in experiment [1] (setting [7]) came to 0.1 mg/kg; in experiment [2] (setting [7]) it was 0.32 mg/kg; in experiment [3] (setting [7]), 0.1 mg/kg.
As to `O=C(CCCN1CCC(O)(c2ccc(Cl)cc2)CC1)c1ccc(F)cc1` [HALOPERIDOL], the ED50 in experiment [4] is 0.1 mg/kg; in experiment [5] it was 0.1 mg/kg; in experiment [6], greater than 3.2 mg/kg.

Broadly, the ED50 is the dose that gives a 50% effect, or the effect in half of the subjects.
